Structure (SMILES)	melting point [°C]
CCNC(=O)Nc1ccc2ncc(-c3ccc(OP(=O)(OCC)OCC)c(OC)c3)nc2n1	182 to 184
CCNC(=O)Nc1ccc2ncc(-c3ccc(OP(=O)([O-])[O-])c(OC)c3)nc2n1.[Na+].[Na+]	> 350
CCNC(=O)Nc1cnc2ccc(-c3ccc(N)c(OC)c3)nc2n1 [Compound 2, 1-[6-(4-Amino-3-methoxy-phenyl)-pyrido[2,3-b]pyrazin-3-yl]-3-ethyl-urea]	> 310
COc1cc(-c2ccc3ncc(NC(=O)Nc4ccccc4)nc3n2)ccc1O [Compound 3, 1-[6-(4-Hydroxy-3-methoxy-phenyl)-pyrido[2,3-b]pyrazin-3-yl]-3-phenyl-urea]	240
CCNC(=O)Nc1cnc2ccc(-c3ccncc3)nc2n1 [Compound 7, 1-Ethyl-3-(6-pyridin-4-yl-pyrido[2,3-b]pyrazin-3-yl)-urea]	211
CCNC(=O)Nc1cnc2ccc(-c3cnn(C)c3)nc2n1 [Compound 10, 1-Ethyl-3-[6-(1-methyl-1H-pyrazol-4-yl)-pyrido[2,3-b]pyrazin-3-yl]urea]	211
CCNC(=O)Nc1cnc2ccc(-c3ccc(OC)cc3)nc2n1 [Compound 11, 1-Ethyl-3-[6-(4-methoxy-phenyl)-pyrido[2,3-b]pyrazin-3-yl]-urea]	244
CCCNC(=O)Nc1cnc2ccc(-c3ccc(O)c(OC)c3)nc2n1 [Compound 16, 1-[6-(4-Hydroxy-3-methoxy-phenyl)-pyrido[2,3-b]pyrazin-3-yl]-3-propyl-urea]	220 to 222
C=CCNC(=O)Nc1cnc2ccc(-c3ccc(O)c(OC)c3)nc2n1 [Compound 18, 1-Allyl-3-[6-(4-hydroxy-3-methoxy-phenyl)-pyrido[2,3-b]pyrazin-3-yl]-urea]	211 to 213
COc1cc(-c2ccc3ncc(NC(=O)NC(C)C)nc3n2)ccc1O [Compound 19, 1-[6-(4-Hydroxy-3-methoxy-phenyl)-pyrido[2,3-b]pyrazin-3-yl]-3-isopropyl-urea]	212 to 214
CCNC(=O)Nc1cnc2ccc(-c3ccc(OC)c(OC)c3)nc2n1 [Compound 22, 1-[6-(3,4-Dimethoxy-phenyl)-pyrido[2,3-b]pyrazin-3-yl]-3-ethyl-urea]	> 235
CCNC(=O)Nc1cnc2ccc(-c3cc(OC)c(OC)c(OC)c3)nc2n1 [Compound 23, 1-Ethyl-3-[6-(3,4,5-trimethoxy-phenyl)-pyrido[2,3-b]pyrazin-3-yl]-urea]	> 230
CCNC(=S)Nc1cnc2ccc(Nc3ccc(C)cc3)nc2n1 [Compound 25, 1-Ethyl-3-(6-p-tolylamino-pyrido[2,3-b]pyrazin-3-yl)-thiourea]	195
COc1cc(-c2ccc3ncc(NC(=O)NC(C)(C)C)nc3n2)ccc1O [Compound 28, 1-tert-Butyl-3-[6-(4-hydroxy-3-methoxy-phenyl)-pyrido[2,3-b]pyrazin-3-yl]-urea]	219 to 222
COc1cc(-c2ccc3ncc(NC(=O)NCc4ccccc4)nc3n2)ccc1O [Compound 29, 1-Benzyl-3-[6-(4-hydroxy-3-methoxy-phenyl)-pyrido[2,3-b]pyrazin-3-yl]-urea]	229 to 231
CCNC(=O)Nc1cnc2ccc(Nc3ccc(O)c(Cl)c3)nc2n1 [Compound 31, 1-[6-(3-Chloro-4-hydroxy-phenylamino)-pyrido[2,3-b]pyrazin-3-yl]-3-ethyl-urea]	277 to 280
CCNC(=O)Nc1ccc2ncc(-c3ccc4c(c3)N(C)CCO4)nc2n1 [Compound 35, 1-Ethyl-3-[3-(4-methyl-3,4-dihydro-2H-benzo[1,4]oxazin-6-yl)-pyrido[2,3-b]pyrazin-6-yl]-urea]	245 to 247
CC(=O)Nc1ccc2ncc(Nc3cccc(OC(C)C)c3)nc2n1 [Compound 36, N-[3-(3-Isopropoxy-phenylamino)-pyrido[2,3-b]pyrazin-6-yl]-acetamide]	177
CCNC(=O)Nc1ccc2ncc(-c3ccc(NC(=O)OCCOC)c(OC)c3)nc2n1 [Compound 40, {4-[6-(3-Ethyl-ureido)-pyrido[2,3-b]pyrazin-3-yl]-2-methoxy-phenyl}-carbamic acid 2-methoxy-ethyl ester]	> 240

Other lines, results leading:

melting point [°C]	Structure (SMILES)
235	CCNC(=O)Nc1cnc2ccc(Nc3ccc(C)cc3)nc2n1 [Compound 1, 1-Ethyl-3-(6-p-tolylamino-pyrido[2,3-b]pyrazin-3-yl)-urea]
276	CCNC(=O)Nc1cnc2ccc(-c3ccc(Cl)cc3)nc2n1 [Compound 6, 1-[6-(4-Chloro-phenyl)-pyrido[2,3-b]pyrazin-3-yl]-3-ethyl-urea]
> 300	CCNC(=O)Nc1cnc2ccc(-c3cc(Cl)c(O)c(Cl)c3)nc2n1 [Compound 9, 1-[6-(3,5-Dichloro-4-hydroxy-phenyl)-pyrido[2,3-b]pyrazin-3-yl]-3-ethyl-urea]
202	CCNC(=O)Nc1cnc2ccc(Nc3ccccc3)nc2n1 [Compound 13, 1-Ethyl-3-(6-phenylamino-pyrido[2,3-b]pyrazin-3-yl)-urea]
251	O=C(Nc1ccccc1)Nc1cnc2ccc(Nc3ccccc3)nc2n1 [Compound 14, 1-Phenyl-3-(6-phenylamino-pyrido[2,3-b]pyrazin-3-yl)-urea]
272	CCNC(=O)Nc1cnc2ccc(Nc3cc(Cl)c(O)c(Cl)c3)nc2n1 [Compound 15, 1-[6-(3,5-Dichloro-4-hydroxy-phenylamino)-pyrido[2,3-b]pyrazin-3-yl]-3-ethyl-urea]
232 to 235	COc1cc(-c2ccc3ncc(NC(=O)NC4CCCCC4)nc3n2)ccc1O [Compound 17, 1-Cyclohexyl-3-[6-(4-hydroxy-3-methoxy-phenyl)-pyrido[2,3-b]pyrazin-3-yl]-urea]
255	CCNC(=O)Nc1cnc2ccc(Nc3ccc(O)c(OC)c3)nc2n1 [Compound 21, 1-Ethyl-3-[6-(4-hydroxy-3-methoxy-phenylamino)-pyrido[2,3-b]pyrazin-3-yl]-urea]
277	CCNC(=O)Nc1cnc2ccc(Nc3ccc(O)cc3)nc2n1 [Compound 24, 1-Ethyl-3-[6-(4-hydroxy-phenylamino)-pyrido[2,3-b]pyrazin-3-yl]-urea]
235 to 237	COc1cc(-c2ccc3ncc(NC(=O)NCCc4ccccc4)nc3n2)ccc1O [Compound 26, 1-[6-(4-Hydroxy-3-methoxy-phenyl)-pyrido[2,3-b]pyrazin-3-yl]-3-phenethyl-urea]
249 to 252	COc1cc(-c2ccc3ncc(NC(=O)Nc4c(C)noc4C)nc3n2)ccc1O [Compound 27, 1-(3,5-Dimethyl-isoxazol-4-yl)-3-[6-(4-hydroxy-3-methoxy-phenyl)-pyrido[2,3-b]pyrazin-3-yl]-urea]
265 to 270	CCNC(=O)Nc1cnc2ccc(Nc3cnc4ccccc4c3)nc2n1 [Compound 32, 1-Ethyl-3-[6-(quinolin-3-ylamino)-pyrido[2,3-b]pyrazin-3-yl]-urea]
247 to 249	CCNC(=O)Nc1ccc2ncc(-c3cc(Cl)c(OS(C)(=O)=O)c(OC)c3)nc2n1 [Compound 37, Methanesulfonic acid 2-chloro-4-[6-(3-ethyl-ureido)-pyrido[2,3-b]pyrazin-3-yl]-6-methoxy-phenyl ester]

— patent publication US8536332B2, “Modulating signal transduction pathways with substituted pyridol [2,3-b] pyrazines” (Aeterna Zentaris GmbH, priority 2007, dated 2013)
